Reference: ChEMBL document CHEMBL3779887, “Robenidine Analogues as Gram-Positive Antibacterial Agents” (J Med Chem, 2016)
In brackets after ≈: the same amount, converted by molar mass.

What was measured:
Assay type in all cases: functional
[1] = tested on: Staphylococcus aureus; test: Antibacterial activity against methicillin-resistant Staphylococcus aureus after 20 to 24 hrs
[2] = tested on: Enterococcus; test: Antibacterial activity against vancomycin-resistant Enterococcus after 20 to 24 hrs
[3] = tested on: Escherichia coli; test: Antibacterial activity against Escherichia coli ATCC 25922 after 20 to 24 hrs
[4] = tested on: Pseudomonas aeruginosa; test: Antibacterial activity against Pseudomonas aeruginosa ATCC 27853 after 20 to 24 hrs
[5] = tested on: Staphylococcus aureus; test: Antibacterial activity against methicillin-resistant Staphylococcus aureus clinical isolate after 20 to 24 hrs
[6] = tested on: Staphylococcus aureus; test: Bactericidal activity against methicillin-resistant Staphylococcus aureus clinical isolate after 24 and 48 hrs
[7] = tested on: Staphylococcus aureus; test: Antibacterial activity against methicillin-sensitive Staphylococcus aureus ATCC 25923 after 20 to 24 hrs
[8] = tested on: Staphylococcus aureus; test: Antibacterial activity against methicillin-sensitive Staphylococcus aureus ATCC 6538 after 20 to 24 hrs
[9] = tested on: Staphylococcus aureus; test: Antibacterial activity against methicillin-sensitive Staphylococcus aureus ATCC 49775 after 20 to 24 hrs
[10] = tested on: Staphylococcus aureus; test: Antibacterial activity against methicillin-sensitive Staphylococcus aureus ATCC 29213 after 20 to 24 hrs
[11] = tested on: Staphylococcus aureus; test: Bactericidal activity against methicillin-sensitive Staphylococcus aureus ATCC 25923 after 24 and 48 hrs
[12] = tested on: Staphylococcus aureus; test: Bactericidal activity against methicillin-sensitive Staphylococcus aureus ATCC 6538 after 24 and 48 hrs
[13] = tested on: Staphylococcus aureus; test: Bactericidal activity against methicillin-sensitive Staphylococcus aureus ATCC 49775 after 24 and 48 hrs
[14] = tested on: Staphylococcus aureus; test: Bactericidal activity against methicillin-sensitive Staphylococcus aureus ATCC 29213 after 24 and 48 hrs
[15] = tested on: Escherichia coli; test: Antibacterial activity against Escherichia coli ATCC 25922 after 20 to 24 hrs in presence of polymyxin B nonapeptide
[16] = tested on: Pseudomonas aeruginosa; test: Antibacterial activity against Pseudomonas aeruginosa ATCC 27853 after 20 to 24 hrs in presence of polymyxin B nonapeptide

Row | SMILES | MIC [1] [µM] | MIC [2] [µM] | MIC [3] [µM] | MIC [4] [µM] | also measured
1 | CC1(C)S[C@@H]2[C@H](NC(=O)[C@H](N)c3ccccc3)C(=O)N2[C@H]1C(=O)O [AMPICILLIN] | 183 (≈ 63.9 µg/mL) | 11.5 (≈ 4.02 µg/mL) | 45.8 (≈ 16 µg/mL) | 366 (≈ 128 µg/mL) | MIC90 [5]: 0.3 µM (≈ 0.105 µg/mL); MBC [6]: 2 µM (≈ 0.699 µg/mL); MIC90 [7]: 0.3 µM (≈ 0.105 µg/mL); MIC90 [8]: 0.3 µM (≈ 0.105 µg/mL); MIC90 [9]: 0.3 µM (≈ 0.105 µg/mL); MIC90 [10]: 0.3 µM (≈ 0.105 µg/mL); MBC [11]: 2 µM (≈ 0.699 µg/mL); MBC [12]: 2 µM (≈ 0.699 µg/mL); MBC [13]: 2 µM (≈ 0.699 µg/mL); MBC [14]: 2 µM (≈ 0.699 µg/mL)
2 | N=C(N/N=C/c1ccc(Cl)cc1Cl)N/N=C/c1ccc(Cl)cc1Cl | > 400 | > 400 | > 400 | > 400 | –
3 | CSc1ccc(/C=N/NC(=N)N/N=C/c2ccc(SC)cc2)cc1 | 61 (≈ 21.8 µg/mL) | 12.7 (≈ 4.54 µg/mL) | > 400 | > 400 | –
4 | N=C(N/N=C/c1ccc(O)c([N+](=O)[O-])c1)N/N=C/c1ccc(O)c([N+](=O)[O-])c1 | > 400 | > 400 | > 400 | > 400 | –
5 | CC(C)c1ccc(/C=N/NC(=N)N/N=C/c2ccc(C(C)C)cc2)cc1 | 9.1 (≈ 3.18 µg/mL) | 13 (≈ 4.54 µg/mL) | > 400 | > 400 | –
6 | COc1cc(/C=N/NC(=N)N/N=C/c2ccc(O)c(OC)c2)ccc1O | 244 (≈ 87.2 µg/mL) | 163 (≈ 58.3 µg/mL) | > 400 | > 400 | –
7 | COc1cc(/C=N/NC(=N)N/N=C/c2cc(O)c(O)c(OC)c2)cc(O)c1O | > 400 | > 400 | > 400 | > 400 | –
8 | COc1ccc(/C=N/NC(=N)N/N=C/c2ccc(OC)c(OC)c2)cc1OC | > 400 | > 400 | > 400 | > 400 | –
9 | CN(C)c1ccc(/C=N/NC(=N)N/N=C/c2ccc(N(C)C)cc2)cc1 | 30.9 (≈ 10.9 µg/mL) | 30.9 (≈ 10.9 µg/mL) | > 400 | > 400 | –
10 | N=C(N/N=C/c1ccc(C(F)(F)F)cc1)N/N=C/c1ccc(C(F)(F)F)cc1 | 36.5 (≈ 14.6 µg/mL) | 11.4 (≈ 4.57 µg/mL) | > 400 | > 400 | –
11 | N=C(N/N=C/c1ccc(F)c(F)c1)N/N=C/c1ccc(F)c(F)c1 | 40.1 (≈ 13.5 µg/mL) | 10.7 (≈ 3.61 µg/mL) | > 400 | > 400 | –
12 | CC(=O)Nc1ccc(/C=N/NC(=N)N/N=C/c2ccc(NC(C)=O)cc2)cc1 | > 400 | > 400 | > 400 | > 400 | –
13 | N=C(N/N=C/c1ccc(Cl)cc1O)N/N=C/c1ccc(Cl)cc1O | 80 (≈ 29.3 µg/mL) | 45 (≈ 16.5 µg/mL) | > 400 | > 400 | –
14 | N=C(N/N=C/c1ccccc1F)N/N=C/c1ccccc1F | > 400 | > 400 | > 400 | > 400 | –
15 | COc1ccc(/C=N/NC(=N)N/N=C/c2ccc(OC)c(O)c2)cc1O | > 400 | > 400 | > 400 | > 400 | –
16 | N=C(N/N=C/c1ccccc1O)N/N=C/c1ccccc1O | 36 (≈ 10.7 µg/mL) | 240 (≈ 71.4 µg/mL) | > 400 | > 400 | –
17 | CC(C)/N=c1\cc2n(-c3ccc(Cl)cc3)c3ccccc3nc-2cc1Nc1ccc(Cl)cc1 [CLOFAZIMINE] | – | – | – | – | MIC90 [3]: > 250 µM; MIC90 [4]: > 250 µM; MIC90 [15]: 4.2 µM; MIC90 [16]: 8.4 µM
